Reference: patent US20260347373A1, “HETEROCYCLIC COMPOUNDS, COMPOSITIONS THEREOF, AND METHODS OF TREATMENT THEREWITH” (BeOne Medicines I GmbH, priority 2023, published 2026)
Read-outs that look alike come from different tables or passages of the source.

Target: KRAS G12D (Homo sapiens, UniProt P01116, G12D)
Experiment: KRAS G12D Probe Displacement Assay (TR-FRET, GDP-loaded)
Type: binding
Source text: The synthetic routes of probe 1 and 2, which have been disclosed in PCT/CN2022/070676, are hereby incorporated herein.

[1] = KRAS G12D, read-out: KRAS^G12D Probe Displacement Assay IC50

Sequence of KRAS G12D (P01116 1-188 isoform P01116-2 G12D): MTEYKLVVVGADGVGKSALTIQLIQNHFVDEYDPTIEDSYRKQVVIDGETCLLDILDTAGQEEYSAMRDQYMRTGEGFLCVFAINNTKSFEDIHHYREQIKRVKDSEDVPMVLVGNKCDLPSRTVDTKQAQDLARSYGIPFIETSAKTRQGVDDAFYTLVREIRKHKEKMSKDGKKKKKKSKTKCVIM

SMILES | IC50 [1] | IC50 (KRAS^G12D Probe Displacement Assay IC50, KRAS G12D)
Cc1cc(N)cc(-c2nc3c4c(nc(O[C@H]5COC[C@H]5N(C)C)nc4c2F)N2C[C@H]4CC[C@H](N4)[C@H]2CCO3)c1C(F)(F)F [Example 39, (3R,4R)-4-(((6aR,7S,10R)-2-(5-amino-3-methyl-2-(trifluoromethyl)phenyl)-1-fluoro-5,6,6a,7,8,9,10,11-octahydro-4-oxa-3,11a,12,14,15-pentaaza-7,10-methanocyclohepta[4,5]cycloocta [1,2,3-de]naphthalen-13-yl)oxy)-N,N-dimethyltetrahydrofuran-3-amine] | 3 to 1000 nM | 
CO[C@@H]1C[C@@H](C(C)Oc2nc3c4c(nc(-c5cc(N)cc(C)c5C(F)(F)F)c(F)c4n2)OCC[C@@H]2[C@@H]4CC[C@H](CN32)N4)N(C)C1 (single isomer, unassigned) [Example 145] | 0.3 to 3 nM | 
Cc1cc(N)cc(-c2nc3c4c(nc(O[C@H]5CCOC[C@H]5N(C)C)nc4c2F)N2C[C@H]4CC[C@H](N4)[C@H]2CCO3)c1C(F)(F)F [Example 11, (3R,4S)-4-(((6aR,7S,10R)-2-(5-amino-3-methyl-2-(trifluoromethyl)phenyl)-1-fluoro-5,6,6a,7,8,9,10,11-octahydro-4-oxa-3,11a,12,14,15-pentaaza-7,10-methanocyclohepta[4,5]cycloocta [1,2,3-de]naphthalen-13-yl)oxy)-N,N-dimethyltetrahydro-2H-pyran-3-amine] | 3 to 1000 nM | 
Cc1cc(N)cc(-c2nc3c4c(nc(OCC5(CN6CCCC6CO)CC5)nc4c2F)N2C[C@H]4CC[C@H](N4)[C@H]2CCO3)c1C(F)(F)F (single isomer, unassigned) [Example 125] | < 0.3 nM | 
Cc1cc(N)cc(-c2nc3c4c(nc(O[C@H]5CCOC[C@@H]5N(C)C)nc4c2F)N2C[C@H]4CC[C@H](N4)[C@H]2CCO3)c1C(F)(F)F [Example 9, (3S,4S)-4-(((6aR,7S,10R)-2-(5-amino-3-methyl-2-(trifluoromethyl)phenyl)-1-fluoro-5,6,6a,7,8,9,10,11-octahydro-4-oxa-3,11a,12,14,15-pentaaza-7,10-methanocyclohepta[4,5]cycloocta [1,2,3-de]naphthalen-13-yl)oxy)-N,N-dimethyltetrahydro-2H-pyran-3-amine] | 3 to 1000 nM | 
COC1CN(C)CC(C)(COc2nc3c4c(nc(-c5cc(N)cc(C)c5C(F)(F)F)c(F)c4n2)OCC[C@@H]2[C@@H]4CC[C@H](CN32)N4)C1 (stereo partly drawn) [Example 127, 3-((6aR,7S,10R)-1-fluoro-13-((5-methoxy-1,3-dimethylpiperidin-3-yl)methoxy)-5,6,6a,7,8,9,10,11-octahydro-4-oxa-3,11a,12,14,15-pentaaza-7,10-methanocyclohepta[4,5]cycloocta[1,2,3-de]naphthalen-2-yl)-5-methyl-4-(trifluoromethyl)aniline] | < 0.3 nM | 
CO[C@H]1CCN(C)[C@@H]1C(C)Oc1nc2c3c(nc(-c4cc(N)cc(C)c4C(F)(F)F)c(F)c3n1)OCC[C@@H]1[C@@H]3CC[C@H](CN21)N3 (single isomer, unassigned) [Example 76] | 0.3 to 3 nM | 
Cc1cc(N)cc(-c2nc3c4c(nc(OC[C@H]5COC[C@@H]5N(C)C)nc4c2F)N2C[C@H]4CC[C@H](N4)[C@H]2CCO3)c1C(F)(F)F [Example 14, (3R,4R)-4-((((6aR,7S,10R)-2-(5-amino-3-methyl-2-(trifluoromethyl)phenyl)-1-fluoro-5,6,6a,7,8,9,10,11-octahydro-4-oxa-3,11a,12,14,15-pentaaza-7,10-methanocyclohepta[4,5]cycloocta [1,2,3-de]naphthalen-13-yl)oxy)methyl)-N,N-dimethyltetrahydrofuran-3-amine] | 3 to 1000 nM | 
Cc1cc(N)cc(-c2nc3c4c(nc(O[C@@H]5COCC[C@H]5N(C)C)nc4c2F)N2C[C@H]4CC[C@H](N4)[C@H]2CCO3)c1C(F)(F)F [Example 10, (3S,4R)-3-(((6aR,7S,10R)-2-(5-amino-3-methyl-2-(trifluoromethyl)phenyl)-1-fluoro-5,6,6a,7,8,9,10,11-octahydro-4-oxa-3,11a,12,14,15-pentaaza-7,10-methanocyclohepta[4,5]cycloocta [1,2,3-de]naphthalen-13-yl)oxy)-N,N-dimethyltetrahydro-2H-pyran-4-amine] | 3 to 1000 nM | 
Cc1cc(N)cc(-c2nc3c4c(nc(OCC5(CN6CCn7ncnc7C6)CC5)nc4c2F)N2C[C@H]4CC[C@H](N4)[C@H]2CCO3)c1C(F)(F)F [Example 109, 3-((6aR,7S,10R)-13-((1-((5,6-dihydro-[1,2,4]triazolo[1,5-a]pyrazin-7(8H)-yl)methyl)cyclopropyl)methoxy)-1-fluoro-5,6,6a,7,8,9,10,11-octahydro-4-oxa-3,11a, 12,14,15-pentaaza-7,10-methanocyclohepta [4,5]cycloocta [1,2,3-de]naphthalen-2-yl)-5-methyl-4-(trifluoromethyl)aniline] | 3 to 1000 nM | 
COC1CN(C)CC(C)(COc2nc3c4c(nc(-c5cc(N)cc(C)c5C(F)(F)F)c(F)c4n2)OCC[C@@H]2[C@@H]4CC[C@H](CN32)N4)C1 (stereo partly drawn) [Example 129, 3-((6aR,7S,10R)-1-fluoro-13-((5-methoxy-1,3-dimethylpiperidin-3-yl)methoxy)-5,6,6a,7,8,9,10,11-octahydro-4-oxa-3,11a,12,14,15-pentaaza-7,10-methanocyclohepta[4,5]cycloocta[1,2,3-de]naphthalen-2-yl)-5-methyl-4-(trifluoromethyl)aniline] | 3 to 1000 nM | 
Cc1cc(N)cc(-c2nc3c4c(nc(OCC5(C)COCC5N(C)C)nc4c2F)N2C[C@H]4CC[C@H](N4)[C@H]2CCO3)c1C(F)(F)F (mixture of isomers) [Example 15, 4-((((6aR,7S,10R)-2-(5-amino-3-methyl-2-(trifluoromethyl)phenyl)-1-fluoro-5,6,6a,7,8,9,10,11-octahydro-4-oxa-3,11a,12,14,15-pentaaza-7,10-methanocyclohepta[4,5]cycloocta [1,2,3-de]naphthalen-13-yl)oxy)methyl)-N,N,4-trimethyltetrahydrofuran-3-amine] | 0.3 to 3 nM | 
COC1CN(CC2(COc3nc4c5c(nc(-c6cc(N)cc(C)c6C(F)(F)F)c(F)c5n3)OCC[C@@H]3[C@@H]5CC[C@H](CN43)N5)CC2(F)F)C1 (single isomer, unassigned) [Example 21] |  | 0.3 to 3 nM
Cc1cc(N)cc(-c2nc3c4c(nc(O[C@@H]5CCOC[C@H]5N(C)C)nc4c2F)N2C[C@H]4CC[C@H](N4)[C@H]2CCO3)c1C(F)(F)F [Example 7] | 3 to 1000 nM | 
Cc1cc(N)cc(-c2nc3c4c(nc(O[C@H]5COCC[C@H]5N(C)C)nc4c2F)N2C[C@H]4CC[C@H](N4)[C@H]2CCO3)c1C(F)(F)F [Example 12, (3R,4R)-3-(((6aR,7S,10R)-2-(5-amino-3-methyl-2-(trifluoromethyl)phenyl)-1-fluoro-5,6,6a,7,8,9,10,11-octahydro-4-oxa-3,11a,12,14,15-pentaaza-7,10-methanocyclohepta[4,5]cycloocta [1,2,3-de]naphthalen-13-yl)oxy)-N,N-dimethyltetrahydro-2H-pyran-4-amine] | 3 to 1000 nM | 
CCN1CC(F)CC(C)(COc2nc3c4c(nc(-c5cc(N)cc(C)c5C(F)(F)F)c(F)c4n2)OCC[C@@H]2[C@@H]4CC[C@H](CN32)N4)C1 (stereo partly drawn) [Example 203, 3-((6aR,7S,10R)-13-((1-ethyl-5-fluoro-3-methylpiperidin-3-yl)methoxy)-1-fluoro-5,6,6a,7,8,9,10,11-octahydro-4-oxa-3,11a,12,14,15-pentaaza-7,10-methanocyclohepta[4,5]cycloocta[1,2,3-de]naphthalen-2-yl)-5-methyl-4-(trifluoromethyl)aniline] | 0.3 to 3 nM | 
